According to ChEMBL document CHEMBL1201862, “PubChem BioAssay data set” (2004):
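Assay format: 96-well plates, 48-hour exposure. GI50: concentration for 50% inhibition of growth.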 Activity calls are given as the source filed them. Rule as the data show it: active = GI50 up to about 1.1 µM and inactive = higher. Starred links: 1 amine or outer side, 2 acyl side, 3 side chain; linkers in the order of their positions; H or OH if unused. Positions of bridges follow the written chain, without caps; N, C: chain ends. Non-standard residues stand in square brackets, D forms with d. Residues, ends and D or L forms follow the SMILES beside them. ξ: configuration not given here. *: point of attachment. γ4hArg(2R,3R-(OH)2) = N=C(N)NCCC[C@H](N[*:1])[C@@H](O)[C@@H](O)C(=O)[*:2]; Gln(3S,4R-Me2) = C[C@H]([C@H](N)C(=O)O)[C@@H](C)C(N)=O; X50 = CC(C)C[C@H](C)[C@@H](O)[C@@H](C)C(=O)*; X51 = COC(c1ccc(O)cc1)C(N[*:1])C(=O)[*:2]; NMeQ = CN[C@@H](CCC(N)=O)C(=O)O; Thr(3ξ) = CC(O)[C@H](N)C(=O)O; NMeA = CN[C@@H](C)C(=O)O

What was measured:
Assay in all cases: NCI anticancer screen, dose series, 48 h
[1] = system: SK-MEL-5
[2] = system: DU-145
[3] = system: MDA-N
[4] = system: UO-31
[5] = system: SW-620
[6] = system: A498
[7] = system: COLO 205
[8] = system: HL-60
[9] = system: SR
[10] = system: HOP-92
[11] = system: SNB-19
[12] = system: BT-549
[13] = system: HCC 2998
[14] = system: NCI/ADR-RES
[15] = system: OVCAR-3
[16] = system: SNB-75
[17] = system: NCI-H23
[18] = system: LOX IMVI
[19] = system: SN12C
[20] = system: SF-539

Compound	GI50 [1]	GI50 [2]	GI50 [3]	GI50 [4]	GI50 [5]	GI50 [6]	GI50 [7]	GI50 [8]	GI50 [9]	GI50 [10]	GI50 [11]	GI50 [12]	GI50 [13]	GI50 [14]	GI50 [15]	GI50 [16]	GI50 [17]	GI50 [18]	GI50 [19]	GI50 [20]
COC(c1ccc(O)cc1)C1NC(=O)[C@H](CCC(N)=O)N(C)C(=O)[C@H](CC(C)C)NC(=O)[C@@H](CCCN=C(N)N)NC(=O)[C@H](C(C)O)NC(=O)[C@@H](NC(=O)[C@@H](NC(=O)[C@H](O)[C@H](O)[C@H](CCCN=C(N)N)NC(=O)[C@H](C)NC(=O)[C@H](C)[C@H](O)[C@@H](C)CC(C)C)[C@@H](C)[C@@H](C)C(N)=O)[C@@H](C)OC(=O)[C@H](C)N(C)C1=O (stereo partly drawn) (X50-A[γ4hArg(2R,3R-(OH)2)][Gln(3S,4R-Me2)]T[Thr(3ξ)][dR]L[NMeQ][X51][NMeA]; ester 4-C)	0.0682 µM (active)	0.0764 µM (active)	0.135 µM (active)	0.249 µM (active)	0.137 µM (active)	0.641 µM (active)	0.0881 µM (active)	0.167 µM (active)	0.143 µM (active)	0.138 µM (active)	0.0929 µM (active)	0.242 µM (active)	0.0877 µM (active)	0.222 µM (active)	0.083 µM (active)	0.0902 µM (active)	0.0944 µM (active)	0.482 µM (active)	0.149 µM (active)	0.0859 µM (active)
CCOC(=O)CN1C(=O)c2cc([N+](=O)[O-])cc3cc([N+](=O)[O-])cc(c23)C1=O	27.3 µM (inactive)	> 25.3 µM (inactive)	11 µM (inactive)	28.7 µM (inactive)	68.5 µM (inactive)	> 100 µM (inactive)	24.7 µM (inactive)	1.71 µM (inactive)	1.45 µM (inactive)	> 77.8 µM (inactive)	> 83.4 µM (inactive)	> 28.6 µM (inactive)	> 100 µM (inactive)	> 80.4 µM (inactive)	23.2 µM (inactive)	84.3 µM (inactive)	99.3 µM (inactive)	4.1 µM (inactive)	14.7 µM (inactive)	20 µM (inactive)
CNC(=O)C(C)NC(=O)C(Cc1ccccc1)NC(=O)OC(C)(C)C (stereo not given)	> 100 µM (inactive)	> 100 µM (inactive)	> 100 µM (inactive)	> 100 µM (inactive)	> 100 µM (inactive)	> 100 µM (inactive)	> 100 µM (inactive)	> 100 µM (inactive)	> 100 µM (inactive)	> 100 µM (inactive)	> 100 µM (inactive)	> 100 µM (inactive)	> 100 µM (inactive)	> 100 µM (inactive)	> 100 µM (inactive)	> 100 µM (inactive)	> 100 µM (inactive)	> 100 µM (inactive)	> 100 µM (inactive)	> 100 µM (inactive)
NS(=O)(=O)c1ccc(NC(=S)NC(=O)Nc2ccc(Cl)c(Cl)c2)cc1	16.1 µM (inactive)	15.5 µM (inactive)	14.6 µM (inactive)	4.56 µM (inactive)	16.5 µM (inactive)	1.07 µM (active)	14 µM (inactive)	10.5 µM (inactive)	< 0.01 µM (active)	26.5 µM (inactive)	11.9 µM (inactive)	15.4 µM (inactive)	14.6 µM (inactive)	16 µM (inactive)	18.5 µM (inactive)	13.7 µM (inactive)	16 µM (inactive)	6.17 µM (inactive)	15.8 µM (inactive)	18.2 µM (inactive)
